The source of these data is PubChem BioAssay (NCI).

Structures are written as SMILES.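 The compound was tested at five concentrations on cells cultured in 96-well plates, with a 48-hour exposure period. GI50: concentration for 50% inhibition of growth. TGI: concentration producing complete growth inhibition.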

Among the test systems are U251 CNS; UACC-62 melanoma; RXF 393 renal; SR leukemia; BT-549 breast; DU-145 prostate; CAKI-1 renal; ACHN renal; NCI-H226 lung; M14 melanoma.
Common to all, as to experiment: growth of human tumour cells (NCI), 48 h

Consider `CN(C)C/C=C/C(=O)Nc1ccc(C(=O)Nc2cccc(Nc3ncc(Cl)c(-c4c[nH]c5ccccc45)n3)c2)cc1`, for which the GI50 with U251 CNS was 23.8 nM; with UACC-62 melanoma it was 43 nM; in the assay with RXF 393 renal, 15.7 nM; in the assay with SR leukemia, 17 nM; in the assay with BT-549 breast, 33.6 nM; in the assay with DU-145 prostate it was 30.7 nM. Further, the GI50 is 60.7 nM in the assay on CAKI-1 renal, 95.7 nM in the assay on ACHN renal, 106 nM with NCI-H226 lung and 34.6 nM in the assay on M14 melanoma. Besides, the TGI with U251 CNS is over 38200 nM; in the assay with UACC-62 melanoma it was 259 nM; in the assay with RXF 393 renal, 39.7 nM; in the assay on SR leukemia, over 100000 nM; in the assay with BT-549 breast, 420 nM; in the assay on DU-145 prostate, 810 nM. In addition, the TGI turned out to be 686 nM with CAKI-1 renal, 369 nM with NCI-H226 lung and 173 nM in the assay on M14 melanoma.

As to `CCN1C[C@@H](C)n2c(c(O)c3c(=O)n(Cc4ccc(F)c(Cl)c4)nc(C(=O)NC)c32)C1=O`, the GI50 in the assay with SR leukemia is 3220 nM; in the assay with BT-549 breast, 3490 nM; in the assay with DU-145 prostate, 3570 nM; in the assay on CAKI-1 renal, 3030 nM; in the assay on ACHN renal, 2850 nM; in the assay with NCI-H226 lung it was 3310 nM. In the assay with M14 melanoma, the GI50 was 3640 nM. Further, the TGI with SR leukemia was 14800 nM; with BT-549 breast, over 100000 nM; in the assay on DU-145 prostate, 13800 nM; in the assay on CAKI-1 renal it was 16600 nM; in the assay on ACHN renal, 8870 nM; in the assay on NCI-H226 lung, over 100000 nM. This molecule also had a TGI in the assay on M14 melanoma of 39500 nM.

As to `CN(C)Cc1ccc(O)c(CN(C)C)n1`, the TGI in the assay with U251 CNS, with UACC-62 melanoma, in the assay with RXF 393 renal, in the assay with SR leukemia, in the assay with BT-549 breast and in the assay on DU-145 prostate was over 100000 nM each time. Besides, the TGI in the assay with CAKI-1 renal, in the assay with ACHN renal, in the assay with NCI-H226 lung and in the assay on M14 melanoma was over 100000 nM each time.

On to `CCN1CCCCCCCCCC(=N/O)/C(=N\O)C1`, for which the TGI in the assay with U251 CNS, with RXF 393 renal, in the assay on SR leukemia, in the assay with BT-549 breast, with DU-145 prostate and with CAKI-1 renal was over 100000 nM in each case. In addition, the TGI with ACHN renal, in the assay with NCI-H226 lung and with M14 melanoma was over 100000 nM throughout.

Consider `Oc1c(Cl)cc(Cl)c(Cl)c1Cc1c(O)c(Cl)cc(Cl)c1Cl`, for which the GI50 with U251 CNS is 1090 nM; in the assay with UACC-62 melanoma it was 335 nM; in the assay with RXF 393 renal, 4040 nM; in the assay on SR leukemia it was 1190 nM; in the assay with BT-549 breast it was 1260 nM; in the assay with DU-145 prostate, 4130 nM. Besides, the GI50 in the assay with CAKI-1 renal is 525 nM; in the assay with ACHN renal, 2270 nM; in the assay on NCI-H226 lung, 2460 nM; in the assay on M14 melanoma, 1380 nM. Further, the TGI with U251 CNS is 12700 nM; in the assay with UACC-62 melanoma, 12000 nM; in the assay with RXF 393 renal it was 22400 nM; in the assay on SR leukemia, over 100000 nM; in the assay on BT-549 breast, 10300 nM; with DU-145 prostate it was 22100 nM. The TGI came out at 7360 nM in the assay on CAKI-1 renal, 31300 nM with ACHN renal, 13000 nM in the assay on NCI-H226 lung and 13900 nM in the assay with M14 melanoma.

With `CC[C@]1(O)CC2CN(CCc3c([nH]c4ccccc34)C(C(=O)OC)(c3cc4c(cc3OC)N(C=O)[C@H]3[C@@](O)(C(=O)OC)[C@H](OC(C)=O)[C@]5(CC)[C@@H]6C[C@@H]6CN6CC[C@]43[C@@H]65)C2)C1` (stereo partly specified), the GI50 was under 3.25 nM in the assay on U251 CNS; under 3.25 nM in the assay on UACC-62 melanoma; under 3.25 nM in the assay with SR leukemia; under 3.25 nM with BT-549 breast; under 3.25 nM in the assay on DU-145 prostate; 32.4 nM in the assay with CAKI-1 renal. The GI50 was 13.9 nM in the assay with ACHN renal, 245 nM in the assay on NCI-H226 lung and under 3.25 nM in the assay with M14 melanoma. Besides, the TGI with U251 CNS is 146 nM; in the assay on UACC-62 melanoma it was over 21000 nM; in the assay with SR leukemia, 247 nM; with BT-549 breast, 15 nM; in the assay on DU-145 prostate, under 3.25 nM; in the assay on CAKI-1 renal, 12200 nM. Besides, the TGI with ACHN renal was over 23500 nM; in the assay with NCI-H226 lung, over 16300 nM; in the assay on M14 melanoma it was 4.78 nM.

Regarding `COC(=O)NC1=Nc2ccccc2C(=O)NN1`, the TGI in the assay with U251 CNS, with UACC-62 melanoma, in the assay on RXF 393 renal, in the assay on SR leukemia, in the assay on BT-549 breast and in the assay on DU-145 prostate was over 100000 nM in each case. Further, the TGI with CAKI-1 renal, with ACHN renal, in the assay with NCI-H226 lung and in the assay with M14 melanoma was over 100000 nM each time.

Regarding `COc1ccc(-c2cc(-c3ccc(Cl)cc3)nc(SCCCC(=O)NO)n2)cc1OC`, the GI50 with U251 CNS was 799 nM; in the assay with UACC-62 melanoma, 1010 nM; in the assay on RXF 393 renal it was 417 nM; with SR leukemia, 354 nM; in the assay on BT-549 breast it was 1940 nM; in the assay on DU-145 prostate, 811 nM. Besides, the results for the GI50 with CAKI-1 renal, with ACHN renal and in the assay on NCI-H226 lung were 308 nM, 364 nM and 1200 nM, respectively. The TGI was 7340 nM with U251 CNS; 2860 nM in the assay on UACC-62 melanoma; 1660 nM in the assay with RXF 393 renal; over 100000 nM in the assay on SR leukemia; 12000 nM in the assay on BT-549 breast; 4730 nM in the assay on DU-145 prostate. Besides, the TGI stood at 1540 nM in the assay on CAKI-1 renal, 2040 nM in the assay on ACHN renal and 5430 nM in the assay on NCI-H226 lung.

For `Cc1cc2c(C(C)C)c(O)c(O)c(/C=N/O)c2c(O)c1-c1c(C)cc2c(C(C)C)c(O)c(O)c(/C=N/O)c2c1O`, the GI50 in the assay on U251 CNS is 1890 nM; in the assay with UACC-62 melanoma, 2150 nM; in the assay with RXF 393 renal, 1490 nM; in the assay with SR leukemia, 3220 nM; in the assay with BT-549 breast it was 2420 nM; in the assay with DU-145 prostate, 2770 nM. For the same molecule, the GI50 in the assay with ACHN renal was 2040 nM; in the assay on NCI-H226 lung, 2870 nM; with M14 melanoma, 2460 nM. Moreover, the TGI in the assay with U251 CNS is 11800 nM; in the assay on UACC-62 melanoma, 5230 nM; in the assay with RXF 393 renal, 6360 nM; in the assay with SR leukemia, 13500 nM; in the assay with BT-549 breast, 13800 nM; in the assay on DU-145 prostate, 13700 nM. Also, the TGI in the assay with ACHN renal is 7450 nM; in the assay with NCI-H226 lung it was 9720 nM; with M14 melanoma, 10100 nM.
